Drawing on patent publication US20080312255A1 (ASTRAZENECA AB, priority 2007, published 2008), this text covers inhibition for 30 compounds.

Sequence of S. aureus GyrB ATPase (P0AES4 whole entry): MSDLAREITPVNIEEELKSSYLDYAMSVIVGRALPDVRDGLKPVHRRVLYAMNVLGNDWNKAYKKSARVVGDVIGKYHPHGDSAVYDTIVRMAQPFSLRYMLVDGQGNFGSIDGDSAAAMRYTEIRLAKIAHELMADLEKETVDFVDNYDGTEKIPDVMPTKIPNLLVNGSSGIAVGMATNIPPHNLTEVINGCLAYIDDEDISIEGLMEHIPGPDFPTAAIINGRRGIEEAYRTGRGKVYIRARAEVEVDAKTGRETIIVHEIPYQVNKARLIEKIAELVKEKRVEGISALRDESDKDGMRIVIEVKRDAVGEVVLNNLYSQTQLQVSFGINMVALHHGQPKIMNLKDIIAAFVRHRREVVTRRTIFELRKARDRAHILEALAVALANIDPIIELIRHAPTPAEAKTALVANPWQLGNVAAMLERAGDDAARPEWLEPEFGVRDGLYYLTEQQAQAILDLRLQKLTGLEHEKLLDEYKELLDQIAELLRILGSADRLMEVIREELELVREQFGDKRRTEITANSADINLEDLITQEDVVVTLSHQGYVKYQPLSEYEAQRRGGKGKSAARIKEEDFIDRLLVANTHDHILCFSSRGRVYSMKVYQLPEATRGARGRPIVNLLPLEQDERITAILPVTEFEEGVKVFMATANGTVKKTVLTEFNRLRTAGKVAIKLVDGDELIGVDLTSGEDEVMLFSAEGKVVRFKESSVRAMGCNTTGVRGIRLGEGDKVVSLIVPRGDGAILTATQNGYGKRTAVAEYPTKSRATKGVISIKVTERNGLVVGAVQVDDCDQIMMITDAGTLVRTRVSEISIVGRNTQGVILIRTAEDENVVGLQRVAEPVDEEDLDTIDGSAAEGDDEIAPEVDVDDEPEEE
Sequence of S. aureus GyrB ATPase (P0A0K8 whole entry): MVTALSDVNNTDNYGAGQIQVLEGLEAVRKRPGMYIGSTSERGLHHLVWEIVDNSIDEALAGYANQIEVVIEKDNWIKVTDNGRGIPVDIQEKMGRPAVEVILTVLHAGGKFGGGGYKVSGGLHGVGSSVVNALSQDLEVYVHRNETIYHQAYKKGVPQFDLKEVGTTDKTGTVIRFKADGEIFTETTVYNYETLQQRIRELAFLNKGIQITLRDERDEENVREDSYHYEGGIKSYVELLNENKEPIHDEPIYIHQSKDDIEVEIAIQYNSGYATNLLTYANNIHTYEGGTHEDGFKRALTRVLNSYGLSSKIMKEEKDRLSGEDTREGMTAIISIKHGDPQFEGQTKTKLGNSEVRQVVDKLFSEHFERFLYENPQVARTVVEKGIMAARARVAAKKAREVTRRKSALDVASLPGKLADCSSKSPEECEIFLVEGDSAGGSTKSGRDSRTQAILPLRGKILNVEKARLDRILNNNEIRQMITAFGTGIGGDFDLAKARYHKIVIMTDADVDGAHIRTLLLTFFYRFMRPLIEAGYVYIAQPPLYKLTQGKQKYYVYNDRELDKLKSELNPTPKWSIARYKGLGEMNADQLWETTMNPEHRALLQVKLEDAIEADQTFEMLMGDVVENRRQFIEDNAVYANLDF

The target of this test is S. aureus GyrB ATPase (Staphylococcus aureus, UniProt P0A0K8). Kind of test: S. aureus GyrB ATPase inhibition (ammonium molybdate/malachite green phosphate detection). It is filed as biochemical. The note with it: compound concentration of 1 μM. An outline of the steps:
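E. coli GyrA and S. aureus GyrB (250 pM each) with sheared salmon sperm DNA and 250 μM ATP, pH 7.5 Hepes buffer. Released phosphate detected by malachite green/ammonium molybdate at 650 nm; percent inhibition at 1 μM compound unless noted, normalized to 2% DMSO (0%) and EDTA (100%) controls.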
For `COCn1ccnc1-c1nc(N2CC[C@@H](NC(=O)c3[nH]c(C)c(Cl)c3Cl)[C@@H](OC)C2)sc1C(=O)O` [Example 17, 2-((3S,4R)-4-{[(3,4-Dichloro-5-methyl-1H-pyrrol-2-yl)carbonyl]amino}-3-methoxypiperidin-1-yl)-4-[1-(methoxymethyl)-1H-imidazol-2-yl]-1,3-thiazole-5-carboxylic acid], the inhibition – broadly, the relative decrease from the control value, in per cent – at 1 µM was found to be 97.7%. The same measure for `CO[C@H]1CN(c2nc(-c3csc(N(C)C)n3)c(C(=O)O)s2)CC[C@H]1NC(=O)c1[nH]c(C)c(Cl)c1Cl` [Example 35, 2-((3S,4R)-4-{[(3,4-Dichloro-5-methyl-1H-pyrrol-2-yl)carbonyl]amino}-3-methoxypiperidin-1-yl)-2′-(dimethylamino)-4,4′-bi-1,3-thiazole-5-carboxylic acid]: 96.6%; for `CO[C@H]1CN(c2nc(-c3cn(C)cn3)c(C(=O)O)s2)CC[C@H]1NC(=O)c1[nH]c(C)c(Cl)c1C#N` [Example 125, 2-((3S,4R)-4-(4-chloro-3-cyano-5-methyl-1H-pyrrole-2-carboxamido)-3-methoxypiperidin-1-yl)-4-(1-methyl-1H-imidazol-4-yl)thiazole-5-carboxylic acid]: 103%. The same measure for `CO[C@H]1CN(c2nc(-c3ncccc3F)c(C(=O)O)s2)CC[C@H]1NC(=O)c1[nH]c(C)c(Cl)c1C#N` [Example 123, 2-((3S,4R)-4-(4-chloro-3-cyano-5-methyl-1H-pyrrole-2-carboxamido)-3-methoxypiperidin-1-yl)-4-(3-fluoropyridin-2-yl)thiazole-5-carboxylic acid]: 104%; for `CO[C@H]1CN(c2nc(-c3ncnn3C)c(C(=O)O)s2)CC[C@H]1NC(=O)c1[nH]c(C)c(Cl)c1Cl` [Example 27, 2-((3S,4R)-4-{[(3,4-Dichloro-5-methyl-1H-pyrrol-2-yl)carbonyl]amino}-3-methoxypiperidin-1-yl)-4-(1-methyl-1H-1,2,4-triazol-5-yl)-1,3-thiazole-5-carboxylic acid]: 99.9%. The same measure for `Cc1[nH]c(C(=O)N[C@@H]2CCN(c3nc(-c4ncnn4C)c(C(=O)O)s3)C[C@@H]2OCc2ccccc2)cc1Cl` [Example 146, 2-[(3S,4R)-3-(benzyloxy)-4-{[(4-chloro-5-methyl-1H-pyrrol-2-yl)carbonyl]amino}piperidin-1-yl]-4-(1-methyl-1H-1,2,4-triazol-5-yl)-1,3-thiazole-5-carboxylic acid]: 116%; for `CO[C@H]1CN(c2nc(-c3nccn3C)c(C(=O)O)s2)CC[C@H]1NC(=O)c1[nH]c(C)c(Cl)c1Cl` [Example 21, 2-((3S,4R)-4-{[(3,4-Dichloro-5-methyl-1H-pyrrol-2-yl)carbonyl]amino}-3-methoxypiperidin-1-yl)-4-(1-methyl-1H-imidazol-2-yl)-1,3-thiazole-5-carboxylic acid]: 99.1%; for `COC(=O)c1sc(N2CC[C@@H](NC(=O)c3[nH]c(C)c(Cl)c3Cl)[C@@H](F)C2)nc1-c1nccs1` [Example 47]: 101%. For `CO[C@H]1CN(c2nc(-c3ccn[nH]3)c(C(=O)O)s2)CC[C@H]1NC(=O)c1[nH]c(C)c(Cl)c1Cl` [Example 23, 2-((3S,4R)-4-{[(3,4-Dichloro-5-methyl-1H-pyrrol-2-yl)carbonyl]amino}-3-methoxypiperidin-1-yl)-4-(1H-pyrazol-5-yl)-1,3-thiazole-5-carboxylic acid], the inhibition at 1 µM was 100%. To `CCOC(=O)c1sc(N2CC[C@@H](NC(=O)c3[nH]c(C)c(Cl)c3Cl)[C@@H](OC)C2)nc1-c1cnccn1` [Example 53] belongs 100%; to `CO[C@H]1CN(c2nc(-c3ncc[nH]3)c(C(=O)O)s2)CC[C@H]1NC(=O)c1[nH]c(C)c(Cl)c1Cl` [Example 18, 2-((3S,4R)-4-{[(3,4-Dichloro-5-methyl-1H-pyrrol-2-yl)carbonyl]amino}-3-methoxypiperidin-1-yl)-4-(1H-imidazol-2-yl)-1,3-thiazole-5-carboxylic acid], 101%; to `COC(=O)c1sc(N2CC[C@@H](NC(=O)c3[nH]c(C)c(Cl)c3Cl)[C@@H](OC)C2)nc1-c1ncnn1C` [Example 66], 101%.

Take `CCOC(=O)c1sc(N2CC[C@@H](NC(=O)c3[nH]c(C)c(Cl)c3C#N)[C@@H](OC)C2)nc1-c1ncccn1` [Example 105, ethyl 2-((3S,4R)-4-(4-chloro-3-cyano-5-methyl-1H-pyrrole-2-carboxamido)-3-methoxypiperidin-1-yl)-4-(pyrimidin-2-yl)thiazole-5-carboxylate]: the inhibition at 1 µM came to 103%. To `CO[C@H]1CN(c2nc(-c3csc(N)n3)c(C(=O)O)s2)CC[C@H]1NC(=O)c1[nH]c(C)c(Cl)c1Cl` [Example 33, 2′-Amino-2-((3S,4R)-4-{[(3,4-dichloro-5-methyl-1H-pyrrol-2-yl)carbonyl]amino}-3-methoxypiperidin-1-yl)-4,4′-bi-1,3-thiazole-5-carboxylic acid] belongs 101%. To `COC(=O)c1sc(N2CC[C@@H](NC(=O)c3[nH]c(C)c(Cl)c3Cl)[C@@H](OC)C2)nc1-c1csc(N)n1` [Example 71] belongs 101%; to `CNc1nc(-c2nc(N3CC[C@@H](NC(=O)c4[nH]c(C)c(Cl)c4Cl)[C@@H](F)C3)sc2C(=O)OC)cs1` [Example 75], 93.1%. Regarding `COCCn1ccnc1-c1nc(N2CC[C@@H](NC(=O)c3[nH]c(C)c(C#N)c3Cl)[C@@H](OC)C2)sc1C(=O)O` [Example 30, 2-((3S,4R)-4-{[(3-Chloro-4-cyano-5-methyl-1H-pyrrol-2-yl)carbonyl]amino}-3-methoxypiperidin-1-yl)-4-[1-(2-methoxyethyl)-1H-imidazol-2-yl]-1,3-thiazole-5-carboxylic acid], the inhibition at 1 µM amounted to 102%. To `CCOC(=O)c1sc(N2CC[C@@H](NC(=O)c3[nH]c(C)c(Cl)c3Cl)[C@@H](OC)C2)nc1-c1nnco1` [Example 83] belongs 102%; to `Cc1[nH]c(C(=O)N[C@@H]2CCN(c3nc(-c4cnccn4)c(C(=O)O)s3)C[C@@H]2OCc2ccccc2)c(C#N)c1Cl` [Example 155, 2-[(3S,4R)-3-(benzyloxy)-4-{[(4-chloro-3-cyano-5-methyl-1H-pyrrol-2-yl)carbonyl]amino}piperidin-1-yl]-4-(pyrazin-2-yl)-1,3-thiazole-5-carboxylic acid], 110%; to `Cc1[nH]c(C(=O)N[C@@H]2CCN(c3nc(-c4cnccn4)c(C(=O)O)s3)C[C@@H]2OCc2ccccc2)cc1Cl` [Example 150, 2-[(3S,4R)-3-(benzyloxy)-4-{[(4-chloro-5-methyl-1H-pyrrol-2-yl)carbonyl]amino}piperidin-1-yl]-4-(pyrazin-2-yl)-1,3-thiazole-5-carboxylic acid], 102%.

For the compound `CCOC(=O)c1sc(N2CC[C@@H](NC(=O)c3[nH]c(C)c(Cl)c3Cl)[C@@H](OC)C2)nc1-c1cnc(C)cn1` [Example 96, ethyl 2-((3S,4R)-4-(3,4-dichloro-5-methyl-1H-pyrrole-2-carboxamido)-3-methoxypiperidin-1-yl)-4-(5-methylpyrazin-2-yl)thiazole-5-carboxylate], the inhibition at 1 µM stood at 90.2%. As to `COC(=O)c1sc(N2CC[C@@H](NC(=O)c3[nH]c(C)c(C#N)c3Cl)[C@@H](OC)C2)nc1-c1ncnn1C` [Example 80], the inhibition at 1 µM was found to be 99.7%.

For the compound `Cc1[nH]c(C(=O)N[C@@H]2CCN(c3nc(-c4ncccn4)c(C(=O)O)s3)C[C@@H]2F)c(Cl)c1Cl` [Example 4, 2-((3S,4R)-4-{[(3,4-Dichloro-5-methyl-1H-pyrrol-2-yl)carbonyl]amino}-3-fluoropiperidin-1-yl)-4-pyrimidin-2-yl-1,3-thiazole-5-carboxylic acid], the inhibition at 1 µM is 97.7%. The same measure for `CO[C@H]1CN(c2nc(-c3cnccn3)c(C(=O)O)s2)CC[C@H]1NC(=O)c1[nH]c(C)c(Cl)c1Cl` [Example 12, 2-((3S,4R)-4-{[(3,4-Dichloro-5-methyl-1H-pyrrol-2-yl)carbonyl]amino}-3-methoxypiperidin-1-yl)-4-pyrazin-2-yl-1,3-thiazole-5-carboxylic acid]: 105%; for `COC(=O)c1sc(N2CC[C@@H](NC(=O)c3[nH]c(C)c(Cl)c3Cl)[C@@H](OC)C2)nc1-c1ccno1` [Example 60]: 104%; for `CCOC(=O)c1sc(N2CC[C@@H](NC(=O)c3[nH]c(C)c(Cl)c3Cl)[C@@H](OC)C2)nc1-c1cc(N(C)C)nc(N(C)C)n1` [Example 50]: 97%. For the compound `CCOC(=O)c1sc(N2CC[C@@H](NC(=O)c3[nH]c(C)c(Cl)c3Cl)[C@@H](F)C2)nc1-c1ncccc1F` [Example 102, ethyl 2-((3S,4R)-4-(3,4-dichloro-5-methyl-1H-pyrrole-2-carboxamido)-3-fluoropiperidin-1-yl)-4-(3-fluoropyridin-2-yl)thiazole-5-carboxylate], the inhibition at 1 µM was 81.4%. For the compound `CO[C@H]1CN(c2nc(-c3cn(C)nn3)c(C(=O)O)s2)CC[C@H]1NC(=O)c1[nH]c(C)c(Cl)c1Cl` [Example 109, 2-((3S,4R)-4-(3,4-dichloro-5-methyl-1H-pyrrole-2-carboxamido)-3-methoxypiperidin-1-yl)-4-(1-methyl-1H-1,2,3-triazol-4-yl)thiazole-5-carboxylic acid], the inhibition at 1 µM was found to be 101%. The same measure for `Cc1[nH]c(C(=O)N[C@@H]2CCN(c3nc(-c4cn(C)nn4)c(C(=O)O)s3)C[C@@H]2F)c(Cl)c1Cl` [Example 116, 2-((3S,4R)-4-(3,4-dichloro-5-methyl-1H-pyrrole-2-carboxamido)-3-fluoropiperidin-1-yl)-4-(1-methyl-1H-1,2,3-triazol-4-yl)thiazole-5-carboxylic acid]: 101%; for `CO[C@H]1CN(c2nc(-c3cc(N(C)C)nc(N(C)C)n3)c(C(=O)O)s2)CC[C@H]1NC(=O)c1[nH]c(C)c(Cl)c1Cl` [Example 9, 4-[2,6-Bis(dimethylamino)pyrimidin-4-yl]-2-((3S,4R)-4-{[(3,4-dichloro-5-methyl-1H-pyrrol-2-yl)carbonyl]amino}-3-methoxypiperidin-1-yl)-1,3-thiazole-5-carboxylic acid]: 102%.
